Measured values reported in ChEMBL document CHEMBL1201861, “Genomics of Drug Sensitity in Cancer screening data, Wellcome Trust Sanger Institute”.

How the values were obtained:
Experiment in all cases: cells
Format in all cases: functional, cell-based, Homo sapiens
DK-MG = details: Homo sapiens, DK-MG;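 further: growth inhibition of DK-MG cells, read out with a cell viability assay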
Description: SANGER: Inhibition of human DK-MG cell growth in a cell viability assay.

DMS-153 = details: Homo sapiens, DMS-153
Description: SANGER: Inhibition of human DMS-153 cell growth in a cell viability assay.

EB-3 = details: Homo sapiens, EB-3;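 further: human EB-3 cells, growth inhibition read out via a cell viability assay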
Description: SANGER: Inhibition of human EB-3 cell growth in a cell viability assay.

ECC4 = details: Homo sapiens, ECC4;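 further: growth inhibition of ECC4 cells, read out with a cell viability assay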
Description: SANGER: Inhibition of human ECC4 cell growth in a cell viability assay.

ESS-1 = details: Homo sapiens, ESS-1;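 further: growth inhibition of human ESS-1 cells, read out by a cell viability assay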
Description: SANGER: Inhibition of human ESS-1 cell growth in a cell viability assay.

FaDu = details: Homo sapiens, FaDu;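 further: cell viability readout of growth inhibition in FaDu cells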
Description: SANGER: Inhibition of human FADU cell growth in a cell viability assay.

G-401 = details: Homo sapiens, G-401
Description: SANGER: Inhibition of human G-401 cell growth in a cell viability assay.

GDM-1 = details: Homo sapiens, GDM-1;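 further: cell viability readout used to measure growth inhibition of human GDM-1 cells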
Description: SANGER: Inhibition of human GDM-1 cell growth in a cell viability assay.

H4 = details: Homo sapiens, H4
Description: SANGER: Inhibition of human H4 cell growth in a cell viability assay.

HCC1806 = details: Homo sapiens, HCC1806;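 further: growth inhibition of the cancer cell line, determined with a cell viability assay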
Description: SANGER: Inhibition of human HCC1806 cell growth in a cell viability assay.

HPAF-II = details: Homo sapiens, HPAF-II;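 further: growth inhibition of HPAF-II cells, read out with a cell viability assay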
Description: SANGER: Inhibition of human HPAF-II cell growth in a cell viability assay.

HTC-C3 = details: Homo sapiens, HTC-C3;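 further: inhibition of cell growth, read out with a cell viability assay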
Description: SANGER: Inhibition of human HTC-C3 cell growth in a cell viability assay.

JIYOYE = details: Homo sapiens, JIYOYE
Description: SANGER: Inhibition of human JiyoyeP-2003 cell growth in a cell viability assay.

KARPAS-422 = details: Homo sapiens, KARPAS-422
Description: SANGER: Inhibition of human KARPAS-422 cell growth in a cell viability assay.

KMS-12-PE = details: Homo sapiens, KMS-12-PE;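 further: growth inhibition of human KMS-12-PE cells, measured with a cell viability assay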
Description: SANGER: Inhibition of human KMS-12-PE cell growth in a cell viability assay.

KYSE-140 = details: Homo sapiens, KYSE-140;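 further: cell viability assay measuring growth inhibition in human KYSE-140 cells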
Description: SANGER: Inhibition of human KYSE-140 cell growth in a cell viability assay.

KYSE-450 = details: Homo sapiens, KYSE-450;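 further: cell growth inhibition measured by a viability assay in human KYSE-450 cells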
Description: SANGER: Inhibition of human KYSE-450 cell growth in a cell viability assay.

LK-2 = details: Homo sapiens, LK-2;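 further: growth inhibition of LK-2 cells, read out with a viability assay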
Description: SANGER: Inhibition of human LK-2 cell growth in a cell viability assay.

LP-1 = details: Homo sapiens, LP-1;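 further: growth inhibition of human LP-1 cells, with the read-out taken from a cell viability assay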
Description: SANGER: Inhibition of human LP-1 cell growth in a cell viability assay.

MC-IXC = details: Homo sapiens, MC-IXC;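 further: growth inhibition of MC-IXC cells, read out with a cell viability assay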
Description: SANGER: Inhibition of human MC-IXC cell growth in a cell viability assay.

MG-63 = details: Homo sapiens, MG-63;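 further: growth inhibition of human MG-63 cells, read out with a cell viability assay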
Description: SANGER: Inhibition of human MG-63 cell growth in a cell viability assay.

MKN-45 = details: Homo sapiens, MKN-45;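 further: growth inhibition of human MKN-45 cells, measured with a cell viability assay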
Description: SANGER: Inhibition of human MKN45 cell growth in a cell viability assay.

NCI-H1792 = details: Homo sapiens, NCI-H1792;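 further: growth inhibition of human NCI-H1792 cells, read out as cell viability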
Description: SANGER: Inhibition of human NCI-H1792 cell growth in a cell viability assay.

NCI-H1793 = details: Homo sapiens, NCI-H1793;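 further: cell growth inhibition, read out by a cell viability assay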
Description: SANGER: Inhibition of human NCI-H1793 cell growth in a cell viability assay.

NCI-H2009 = details: Homo sapiens, NCI-H2009;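 further: cell viability assay measuring inhibition of NCI-H2009 cell growth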
Description: SANGER: Inhibition of human NCI-H2009 cell growth in a cell viability assay.

NCI-H2122 = details: Homo sapiens, NCI-H2122;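 further: growth inhibition of the cells, read out with a cell viability assay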
Description: SANGER: Inhibition of human NCI-H2122 cell growth in a cell viability assay.

NCI-H2405 = details: Homo sapiens, NCI-H2405;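 further: growth inhibition of the human cell line, read out with a cell viability assay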
Description: SANGER: Inhibition of human NCI-H2405 cell growth in a cell viability assay.

NCI-H460 = details: Homo sapiens, NCI-H460;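 further: cell viability assay scoring growth inhibition of human NCI-H460 cells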
Description: SANGER: Inhibition of human NCI-H460 cell growth in a cell viability assay.

NCI-H650 = details: Homo sapiens, NCI-H650;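 further: growth inhibition of NCI-H650 cells, read out by a viability assay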
Description: SANGER: Inhibition of human NCI-H650 cell growth in a cell viability assay.

P12-Ichikawa = details: Homo sapiens, P12-Ichikawa
P31-FUJ = details: Homo sapiens, P31-FUJ;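 further: growth inhibition of P31-FUJ cells, read out with a viability assay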
Description: SANGER: Inhibition of human P31-FUJ cell growth in a cell viability assay.

RT-112 = details: Homo sapiens, RT-112
Description: SANGER: Inhibition of human RT-112 cell growth in a cell viability assay.

SK-N-AS = details: Homo sapiens, SK-N-AS;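 further: growth inhibition of human SK-N-AS cells, measured with a cell viability assay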
Description: SANGER: Inhibition of human SK-N-AS cell growth in a cell viability assay.

SNU-C1 = details: Homo sapiens, SNU-C1;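 further: growth inhibition of SNU-C1 human cells, read out by a cell viability assay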
Description: SANGER: Inhibition of human SNU-C1 cell growth in a cell viability assay.

SW1088 = details: Homo sapiens, SW1088;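 further: growth inhibition of human SW1088 cells, read out by a cell viability assay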
Description: SANGER: Inhibition of human SW1088 cell growth in a cell viability assay.

SW1710 = details: Homo sapiens, SW1710;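 further: growth inhibition of SW1710 cells, determined with a cell viability assay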
Description: SANGER: Inhibition of human SW1710 cell growth in a cell viability assay.

SW837 = details: Homo sapiens, SW837;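 further: growth inhibition of SW837 cells, determined with a cell viability assay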
Description: SANGER: Inhibition of human SW837 cell growth in a cell viability assay.

769-P = details: Homo sapiens, 769-P
Description: SANGER: Inhibition of human 769-P cell growth in a cell viability assay.

AGS = details: Homo sapiens, AGS;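 further: growth inhibition of AGS cells, determined with a cell viability assay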
Description: SANGER: Inhibition of human AGS cell growth in a cell viability assay.

ARH-77 = details: Homo sapiens, ARH-77;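 further: growth inhibition of ARH-77 cells, read out by a cell viability assay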
Description: SANGER: Inhibition of human ARH-77 cell growth in a cell viability assay.

BOKU = details: Homo sapiens, BOKU;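 further: growth inhibition of the human BOKU cell line, read out by a cell viability assay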
Description: SANGER: Inhibition of human BOKU cell growth in a cell viability assay.

CAL-27 = details: Homo sapiens, CAL-27;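 further: Viability-based readout, IC50 reflecting inhibition of CAL-27 cell growth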
Description: SANGER: Inhibition of human CAL-27 cell growth in a cell viability assay.

CAL-39 = details: Homo sapiens, CAL-39;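 further: cell viability assay measuring growth inhibition of CAL-39 cells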
Description: SANGER: Inhibition of human CAL-39 cell growth in a cell viability assay.

CAL-51 = details: Homo sapiens, CAL-51;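 further: human CAL-51 cell line, growth inhibition read out via a cell viability assay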
Description: SANGER: Inhibition of human CAL-51 cell growth in a cell viability assay.

CAL-72 = details: Homo sapiens, CAL-72;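 further: cell viability assay measuring inhibition of proliferation in the CAL-72 cell line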
Description: SANGER: Inhibition of human CAL-72 cell growth in a cell viability assay.

UACC-893 = details: Homo sapiens, UACC-893
Description: SANGER: Inhibition of human UACC-893 cell growth in a cell viability assay.

YAPC = details: Homo sapiens, YAPC;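 further: growth inhibition of YAPC cells, measured with a cell viability assay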
Description: SANGER: Inhibition of human YAPC cell growth in a cell viability assay.

YKG-1 = details: Homo sapiens, YKG-1;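 further: cell growth inhibition, read out with a viability assay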
Description: SANGER: Inhibition of human YKG-1 cell growth in a cell viability assay.

D-336MG = details: Homo sapiens, D-336MG
Description: SANGER: Inhibition of human D-336MG cell growth in a cell viability assay.

Compound: Oc1ccc2ccccc2c1SSc1c(O)ccc2ccccc12
- IC50 (DK-MG): > 32 µM
- IC50 (DMS-153): > 32 µM
- IC50 (EB-3): 10.5 µM
- IC50 (ECC4): > 32 µM
- IC50 (ESS-1): > 32 µM
- IC50 (FaDu): > 32 µM
- IC50 (G-401): 7.53 µM
- IC50 (GDM-1): > 32 µM
- IC50 (H4): > 32 µM
- IC50 (HCC1806): > 32 µM
- IC50 (HPAF-II): > 32 µM
- IC50 (HTC-C3): > 32 µM
- IC50 (JIYOYE): 7.26 µM
- IC50 (KARPAS-422): 7.84 µM
- IC50 (KMS-12-PE): > 32 µM
- IC50 (KYSE-140): > 32 µM
- IC50 (KYSE-450): > 32 µM
- IC50 (LK-2): 29.2 µM
- IC50 (LP-1): 30.5 µM
- IC50 (MC-IXC): > 32 µM
- IC50 (MG-63): > 32 µM
- IC50 (MKN-45): > 32 µM
- IC50 (NCI-H1792): > 32 µM
- IC50 (NCI-H1793): > 32 µM
- IC50 (NCI-H2009): 5.04 µM
- IC50 (NCI-H2122): > 32 µM
- IC50 (NCI-H2405): 12 µM
- IC50 (NCI-H460): > 32 µM
- IC50 (NCI-H650): > 32 µM
- IC50 (P12-Ichikawa): > 32 µM
- IC50 (P31-FUJ): > 32 µM
- IC50 (RT-112): 27.3 µM
- IC50 (SK-N-AS): > 32 µM
- IC50 (SNU-C1): > 32 µM
- IC50 (SW1088): > 32 µM
- IC50 (SW1710): 1.18 µM
- IC50 (SW837): > 32 µM
- IC50 (769-P): > 32 µM
- IC50 (AGS): > 32 µM
- IC50 (ARH-77): > 32 µM
- IC50 (BOKU): > 32 µM
- IC50 (CAL-27): > 32 µM
- IC50 (CAL-39): > 32 µM
- IC50 (CAL-51): 3.55 µM
- IC50 (CAL-72): 24.7 µM
- IC50 (UACC-893): > 32 µM
- IC50 (YAPC): > 32 µM
- IC50 (YKG-1): > 32 µM

Compound: CC(C)CCN1c2nc(Nc3cc(F)c(O)c(F)c3)ncc2N(C)C(=O)C1C (centres undefined)
- IC50 (D-336MG): > 5 µM
- IC50 (DK-MG): > 5 µM
- IC50 (ESS-1): > 5 µM
- IC50 (FaDu): > 5 µM
- IC50 (G-401): > 5 µM
- IC50 (H4): 2.48 µM
- IC50 (HCC1806): > 5 µM
- IC50 (HPAF-II): > 5 µM
- IC50 (HTC-C3): > 5 µM
- IC50 (KYSE-140): > 5 µM
- IC50 (KYSE-450): > 5 µM
- IC50 (LK-2): > 5 µM
- IC50 (MC-IXC): 0.796 µM
- IC50 (MG-63): > 5 µM
- IC50 (MKN-45): > 5 µM
- IC50 (NCI-H1792): 2.74 µM
- IC50 (NCI-H1793): > 5 µM
- IC50 (NCI-H2009): > 5 µM
- IC50 (NCI-H2122): > 5 µM
- IC50 (NCI-H2405): > 5 µM
- IC50 (NCI-H460): > 5 µM
- IC50 (NCI-H650): > 5 µM
- IC50 (P12-Ichikawa): 2.53 µM
- IC50 (RT-112): > 5 µM
- IC50 (SK-N-AS): 2.29 µM
- IC50 (SW1088): > 5 µM
- IC50 (SW1710): 2.31 µM
- IC50 (SW837): > 5 µM
- IC50 (769-P): > 5 µM
- IC50 (AGS): 2.34 µM
- IC50 (CAL-27): > 5 µM
- IC50 (CAL-39): 4.94 µM
- IC50 (CAL-51): 4.87 µM
- IC50 (CAL-72): > 5 µM
- IC50 (UACC-893): > 5 µM
- IC50 (YAPC): > 5 µM
- IC50 (YKG-1): 1.98 µM

Compound: CS(=O)(=O)c1ccc(C(=O)Nc2ccc(Cl)c(-c3ccccn3)c2)c(Cl)c1 [VISMODEGIB]
- IC50 (D-336MG): > 10 µM
- IC50 (DK-MG): > 10 µM
- IC50 (ESS-1): > 10 µM
- IC50 (FaDu): > 10 µM
- IC50 (G-401): > 10 µM
- IC50 (H4): > 10 µM
- IC50 (HCC1806): > 10 µM
- IC50 (HPAF-II): > 10 µM
- IC50 (HTC-C3): > 10 µM
- IC50 (KYSE-140): > 10 µM
- IC50 (KYSE-450): > 10 µM
- IC50 (LK-2): > 10 µM
- IC50 (MC-IXC): > 10 µM
- IC50 (MG-63): > 10 µM
- IC50 (MKN-45): > 10 µM
- IC50 (NCI-H1792): > 10 µM
- IC50 (NCI-H1793): > 10 µM
- IC50 (NCI-H2009): > 10 µM
- IC50 (NCI-H2122): > 10 µM
- IC50 (NCI-H2405): > 10 µM
- IC50 (NCI-H460): > 10 µM
- IC50 (NCI-H650): > 10 µM
- IC50 (P12-Ichikawa): > 10 µM
- IC50 (RT-112): > 10 µM
- IC50 (SK-N-AS): > 10 µM
- IC50 (SW1088): > 10 µM
- IC50 (SW1710): > 10 µM
- IC50 (SW837): > 10 µM
- IC50 (769-P): > 10 µM
- IC50 (AGS): > 10 µM
- IC50 (CAL-27): > 10 µM
- IC50 (CAL-39): > 10 µM
- IC50 (CAL-51): > 10 µM
- IC50 (CAL-72): > 10 µM
- IC50 (UACC-893): > 10 µM
- IC50 (YAPC): > 10 µM
- IC50 (YKG-1): > 10 µM

Compound: Cc1cn(-c2cc(NC(=O)c3ccc(C)c(Nc4nccc(-c5cccnc5)n4)c3)cc(C(F)(F)F)c2)cn1 [NILOTINIB]
- IC50 (D-336MG): > 2 µM
- IC50 (DK-MG): > 2 µM
- IC50 (ESS-1): > 2 µM
- IC50 (FaDu): > 2 µM
- IC50 (G-401): > 2 µM
- IC50 (H4): > 2 µM
- IC50 (HCC1806): > 2 µM
- IC50 (HPAF-II): > 2 µM
- IC50 (HTC-C3): > 2 µM
- IC50 (KYSE-140): > 2 µM
- IC50 (KYSE-450): > 2 µM
- IC50 (LK-2): > 2 µM
- IC50 (MC-IXC): > 2 µM
- IC50 (MG-63): > 2 µM
- IC50 (MKN-45): > 2 µM
- IC50 (NCI-H1792): > 2 µM
- IC50 (NCI-H1793): > 2 µM
- IC50 (NCI-H2009): > 2 µM
- IC50 (NCI-H2122): > 2 µM
- IC50 (NCI-H2405): > 2 µM
- IC50 (NCI-H460): > 2 µM
- IC50 (NCI-H650): > 2 µM
- IC50 (P12-Ichikawa): > 2 µM
- IC50 (RT-112): > 2 µM
- IC50 (SK-N-AS): > 2 µM
- IC50 (SW1088): > 2 µM
- IC50 (SW1710): > 2 µM
- IC50 (SW837): > 2 µM
- IC50 (769-P): > 2 µM
- IC50 (AGS): > 2 µM
- IC50 (CAL-27): > 2 µM
- IC50 (CAL-39): > 2 µM
- IC50 (CAL-51): > 2 µM
- IC50 (CAL-72): > 2 µM
- IC50 (UACC-893): > 2 µM
- IC50 (YAPC): > 2 µM
- IC50 (YKG-1): > 2 µM
